Results reported in patent publication US7928060B2, “Amylin family polypeptide-6 (AFP-6) analogs and methods of making and using them” (Amylin Pharmaceuticals, Inc., priority 2004, dated 2011).
Like-named read-outs stand apart in the source and are kept apart here. Bridge positions count the residues as written; N and C are the ends. Ends that are not written are not given here. Peptide text beside a SMILES is read from it.

Experiments:
Sprague-Dawley rats = experiment: 1-week continuous subcutaneous infusion in high fat-fed rats: food intake and body weight; assay type: in vivo, rat; conditions: 75 nmol/kg/day
Excerpt: Individually housed male Sprague-Dawley® rats (beginning weight=310 g; 12-h light/dark cycle) were maintained on a high fat (HF) diet (Research Diet 58% kcal from fat). Rats were fattened for 34 days. At the end of the fattening period, 7-day osmotic pumps (Durect Corp.) were implanted interscapularly under anesthesia (body weight at time of implant=403 g). The rats received pumps delivering compound or vehicle (50% DMSO). The following compounds were examined at a 75 nmol/kg/day dose: AFP-6, and an AFP-6 analog SEQ ID NO:32. Food intake and body weight measurements were obtained on day 2 and day 7. Group differences were analyzed using analysis of variance (ANOVA) and Fisher's Least-Significant Difference test.

NIH/Swiss mice = experiment: acute food intake assay in overnight-fasted mice, IP injection; assay type: in vivo, mouse
Procedure: The effect of AFP-6 on food intake was investigated using an acute food intake assay. This assay measured food consumption in lean, group-housed, overnight-fasted NIH/Swiss mice. 12 mice were housed 3 to a cage. The sample compound, in this case AFP-6, was injected IP in mice and food intake was measured during the next 2-hours. Decreased, as well as increased, food intake can be measured. Testing various doses of the compound generated ED50's. The assay was performed as follows: 1. Remove food (water ad libitum) at 5:00 pm the evening before the study. 2. Weigh food pellets (3 pellets/cage). 3. Inject animals intraperitoneally with 200 ul of appropriate solution, t=0. 4. Immediately add pre-weighed food to each cage (away from water bottle spout) and allow animals to feed undisturbed. 5. At 30, 60, and 120 minutes, collect and weigh food. 6. Analyze data. Data points represent mean ±sd of n=12.
Twelve mice were injected IP at t=0 for each dose, 0.3, 1, 3, 10, 30, 100, or 300 nmol/kg of AFP-6 (Amylin Pharmaceuticals, Inc.) (n=12/group). Food was introduced immediately after injection and amount consumed measured at t=30, 60, and 120 min.

amylin receptors = molecular target: T1, amylin receptors (Rattus norvegicus, UniProt P32214); experiment: amylin radioligand binding assay (125I-rat amylin, nucleus accumbens membranes); conditions: for IC50: Table 6, read-out: Amylin receptor binding
T1 construct: This basal forebrain tissue, containing the nucleus accumbens and surrounding regions, was weighed and homogenized; from tissue; host or cells: rat basal forebrain (nucleus accumbens) membranes, male Sprague-Dawley rats
T1 sequence (P32214 25-516): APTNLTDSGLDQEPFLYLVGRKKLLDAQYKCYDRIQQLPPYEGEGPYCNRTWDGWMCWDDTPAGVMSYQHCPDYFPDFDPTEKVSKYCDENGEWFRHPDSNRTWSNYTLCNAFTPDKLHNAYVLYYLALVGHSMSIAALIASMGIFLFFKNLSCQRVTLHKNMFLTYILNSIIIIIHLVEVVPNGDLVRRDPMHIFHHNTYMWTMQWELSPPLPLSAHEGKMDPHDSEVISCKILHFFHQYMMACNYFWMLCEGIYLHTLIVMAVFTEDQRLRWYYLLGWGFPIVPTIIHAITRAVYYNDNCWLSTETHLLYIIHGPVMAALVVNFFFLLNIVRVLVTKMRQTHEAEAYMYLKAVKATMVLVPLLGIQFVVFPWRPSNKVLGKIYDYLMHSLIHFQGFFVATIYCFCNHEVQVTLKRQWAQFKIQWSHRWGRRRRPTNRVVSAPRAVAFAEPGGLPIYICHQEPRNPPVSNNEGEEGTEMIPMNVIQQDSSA
Procedure: Unlabeled peptides were obtained from BACHEM Inc. (Torrance, Calif.).
Male Sprague-Dawley® rats (200-250) grams were sacrificed by decapitation. Brains were removed and place in cold phosphate-buffered saline (PBS). From the ventral surface, cuts were made rostral to the hypothalamus, bounded laterally by the olfactory tracts and extending at a 45° angle medially from these tracts. […] Membranes were washed three times in fresh buffer by centrifugation for 15 minutes at 48,000×g. The final membrane pellet was resuspended in 20 mM HEPES buffer containing 0.2 mM phenylmethylsulfonyl fluoride (PMSF).
Solutions were incubated for 60 minutes at 2 C. […] Filters were washed immediately before filtration with 5 ml cold PBS, and immediately after filtration with 15 ml cold PBS. […] Competition curves were generated by measuring binding in the presence of 10^−12 to 10^−6 M unlabeled test compound and were analyzed by nonlinear regression using a 4-parameter logistic equation (INPLOT program; […] Software, San Diego, Calif.).

calcitonin receptor [1] = experiment: cAMP production in CHO cells (AlphaScreen); assay type: cell-based; conditions: for EC50: CHO, 30,000 cells/well
rats = experiment: telemetry of cardiovascular parameters in conscious rats; assay type: in vivo, rat; conditions: 10 nmol/kg intravenous, 1 hour
Excerpt: Telemetry allows for real-time hemodynamic readings including arterial pressure, heart rate, arterial dP/dt, ECG (with waveform intervals) and core temperature via an implanted radio transmitter in conscious, non-anesthetized, unrestrained rats. […] Remote intravenous dosing is achieved through in-dwelling vascular access ports.

calcitonin receptor [2] = molecular target: T2, calcitonin receptor (Homo sapiens, UniProt P30988); experiment: cAMP production in T47D cells (AlphaScreen)
T2 sequence (P30988 25-474): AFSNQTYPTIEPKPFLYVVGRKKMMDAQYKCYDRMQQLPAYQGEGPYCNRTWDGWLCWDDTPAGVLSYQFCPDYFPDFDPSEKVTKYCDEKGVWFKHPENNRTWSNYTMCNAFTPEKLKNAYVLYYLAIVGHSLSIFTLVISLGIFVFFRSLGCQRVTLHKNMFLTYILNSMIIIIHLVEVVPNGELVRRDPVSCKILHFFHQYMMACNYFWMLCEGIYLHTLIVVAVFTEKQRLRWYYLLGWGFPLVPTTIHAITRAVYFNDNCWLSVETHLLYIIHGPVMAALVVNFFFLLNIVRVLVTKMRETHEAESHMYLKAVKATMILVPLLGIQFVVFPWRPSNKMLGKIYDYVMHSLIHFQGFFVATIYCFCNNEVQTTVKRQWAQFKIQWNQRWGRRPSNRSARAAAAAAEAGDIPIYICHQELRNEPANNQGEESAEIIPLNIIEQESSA

CGRP receptors = molecular target: T3, CGRP receptors (Homo sapiens, UniProt O60894+Q16602); experiment: CGRP radioligand binding assay (125I-hCGRP, SK-N-MC cell membranes)
T3 construct: membranes prepared from SK-N-MC cells, known to express CGRP receptors; endogenous in cells; host or cells: SK-N-MC cell membranes
T3 sequence (Q16602 23-461): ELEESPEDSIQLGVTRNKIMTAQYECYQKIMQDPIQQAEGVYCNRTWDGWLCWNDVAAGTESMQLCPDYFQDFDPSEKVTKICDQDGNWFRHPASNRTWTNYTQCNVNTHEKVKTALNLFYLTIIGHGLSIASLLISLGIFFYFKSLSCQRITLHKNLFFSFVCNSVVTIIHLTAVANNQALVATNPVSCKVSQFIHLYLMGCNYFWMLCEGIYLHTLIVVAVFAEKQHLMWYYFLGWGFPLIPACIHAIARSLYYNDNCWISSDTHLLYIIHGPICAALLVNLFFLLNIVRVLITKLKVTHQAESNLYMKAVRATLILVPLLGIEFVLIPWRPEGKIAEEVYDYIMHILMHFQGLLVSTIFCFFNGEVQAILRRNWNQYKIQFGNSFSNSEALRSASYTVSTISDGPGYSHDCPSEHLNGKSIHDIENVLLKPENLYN
T3 sequence (O60894 27-148): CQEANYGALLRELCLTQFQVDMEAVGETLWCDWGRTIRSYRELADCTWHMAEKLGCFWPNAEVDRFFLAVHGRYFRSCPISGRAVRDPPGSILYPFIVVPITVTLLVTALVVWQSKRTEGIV

calcitonin receptor [3] = molecular target: T4, calcitonin receptor (Rattus norvegicus, UniProt P32214); experiment: calcitonin receptor binding assay (rCalcitonin RBA); conditions: Table 6; read-out: CT receptor binding
T4 sequence (P32214 25-516): T1 sequence (P32214 25-516)

adrenomedullin receptor = adrenomedullin receptor (Homo sapiens, UniProt O60895+Q16602); experiment: adrenomedullin (ADM) receptor binding assay; conditions: Table 6
adrenomedullin receptor, sequence (Q16602 23-461): as the sequence (Q16602 23-461) above
adrenomedullin receptor, sequence (O60895 43-175): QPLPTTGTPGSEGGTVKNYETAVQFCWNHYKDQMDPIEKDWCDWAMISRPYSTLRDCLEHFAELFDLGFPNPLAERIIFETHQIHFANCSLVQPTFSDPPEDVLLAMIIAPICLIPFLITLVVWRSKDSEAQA

TQAQLLRVGCVLGTCQVQNLSHRLWQLMGPAGRQESAPVEPSSPHSY-NH2 (cysteine pairing not given here) [SEQ ID NO: 32]
body weight gain compared to Vehicle (Sprague-Dawley rats; Day 7): significantly less body weight gain than Vehicle | percent body weight loss (vehicle-corrected) (Sprague-Dawley rats; Day 7): 2.1% | food intake compared to Vehicle (Sprague-Dawley rats; after 2 days of treatment): significantly reduced food intake

CC[C@H](C)[C@H](NC(=O)[C@H](CCC(N)=O)NC(=O)[C@H](Cc1c[nH]cn1)NC(=O)[C@H](C)NC(=O)[C@H](CC(C)C)NC(=O)[C@H](CCCCN)NC(=O)[C@H](CCC(N)=O)NC(=O)[C@@H](NC(=O)[C@@H](NC(=O)[C@@H]1CSSC[C@H](NC(=O)CNC(=O)[C@H](Cc2ccccc2)NC(=O)[C@H](CO)NC(=O)[C@H](CCCNC(=N)N)NC(=O)[C@H](CC(C)C)NC(=O)CNC(=O)[C@H](CCC(N)=O)NC(=O)[C@H](Cc2ccccc2)NC(=O)[C@H](CC(N)=O)NC(=O)[C@H](CC(N)=O)NC(=O)[C@H](CCSC)NC(=O)[C@H](CO)NC(=O)[C@H](CCC(N)=O)NC(=O)[C@H](CCCNC(=N)N)NC(=O)[C@@H](N)Cc2ccc(O)cc2)C(=O)N[C@@H](CCCNC(=N)N)C(=O)N[C@@H](Cc2ccccc2)C(=O)NCC(=O)N[C@@H]([C@@H](C)O)C(=O)N1)[C@@H](C)O)C(C)C)C(=O)N[C@@H](Cc1ccc(O)cc1)C(=O)N[C@@H](CCC(N)=O)C(=O)N[C@@H](Cc1ccccc1)C(=O)N[C@H](C(=O)N[C@@H](CC(=O)O)C(=O)N[C@@H](CCCCN)C(=O)N[C@@H](CC(=O)O)C(=O)N[C@@H](CCCCN)C(=O)N[C@@H](CC(=O)O)C(=O)N[C@@H](CC(N)=O)C(=O)N[C@H](C(=O)N[C@@H](C)C(=O)N1CCC[C@H]1C(=O)N[C@@H](CCCNC(=N)N)C(=O)N[C@@H](CO)C(=O)N[C@@H](CCCCN)C(=O)N[C@H](C(=O)N[C@@H](CO)C(=O)N1CCC[C@H]1C(=O)N[C@@H](CCC(N)=O)C(=O)NCC(=O)N[C@@H](Cc1ccc(O)cc1)C(N)=O)[C@@H](C)CC)C(C)C)[C@@H](C)O [SEQ ID NO: 9]
inhibition of food intake, maximal (NIH/Swiss mice; mice, dose not given): up to 71% | ED50 for inhibition of food intake (NIH/Swiss mice; mice, time not given): 13 nmol/kg | rank order of potency, displacement of bound amylin (amylin receptors; FIG. 10): amylin >CGRP>AFP-6 >>adrenomedullin>calcitonin | EC50 (calcitonin receptor [1]; average of three experiments, read-out: Average EC50): […] | EC50 (calcitonin receptor [1]; read-out: Experiment 1 EC50): […] | EC50 (calcitonin receptor [1]; read-out: Experiment 2 EC50): […] | EC50 (calcitonin receptor [1]; read-out: Experiment 3 EC50): […] | rank order of potency in CHO cells (calcitonin receptor [1]; cAMP, FIG. 9): […] | rank order of potency, CHO cell experiments (calcitonin receptor [1]; cAMP, panel of related peptides): […] | dp/dt (rats): sustained increase in dp/dt over the hour | mean arterial pressure (MAP) (rats): decreases MAP throughout the 1-hour time period | rank order of potency, T47D cells (calcitonin receptor [2]): calcitonin>amylin >AFP-6=hCGRP alpha>adrenomedullin

CC(C)C[C@H](NC(=O)[C@H](CCC(N)=O)NC(=O)[C@H](Cc1c[nH]c2ccccc12)NC(=O)[C@H](CC(C)C)NC(=O)[C@H](CCCNC(=N)N)NC(=O)[C@H](Cc1c[nH]cn1)NC(=O)[C@H](CO)NC(=O)[C@H](CC(C)C)NC(=O)[C@H](CC(N)=O)NC(=O)[C@H](CCC(N)=O)NC(=O)[C@@H](NC(=O)[C@H](CCC(N)=O)NC(=O)[C@@H]1CSSC[C@H](NC(=O)CN)C(=O)N[C@@H](CC(N)=O)C(=O)N[C@@H]([C@@H](C)O)C(=O)N[C@@H](C)C(=O)N[C@@H]([C@@H](C)O)C(=O)N1)C(C)C)C(=O)N[C@@H](CCCNC(=N)N)C(=O)N[C@@H](CCC(N)=O)C(=O)N[C@@H](CC(=O)O)C(=O)N[C@@H](CO)C(=O)N[C@@H](C)C(=O)N1CCC[C@H]1C(=O)N[C@H](C(=O)N[C@@H](CC(=O)O)C(=O)N1CCC[C@H]1C(=O)N[C@@H](CO)C(=O)N[C@@H](CO)C(=O)N1CCC[C@H]1C(=O)N[C@@H](Cc1c[nH]cn1)C(=O)N[C@@H](CO)C(=O)N[C@@H](Cc1ccc(O)cc1)C(N)=O)C(C)C [compound 31] (H-GCNTATCQVQNLSHRLWQLRQDSAPVDPSSPHSY-NH2; disulfide 2-7 (inferred); N-terminus assumed)
IC50 (amylin receptors): 12 nM | IC50 (CGRP receptors; Table 6): 18 nM | IC50 (calcitonin receptor [3]): 51 nM | IC50 (adrenomedullin receptor): ≥ 1000 nM

r/h Amylin: Amylin Family polypeptide of Table 3; r/h not resolved per value (KCNTATCATQRLANFLVHSSNNFGAILSSTNVGSNTY; Islet amyloid polypeptide; UniProt P10997 34-70, looked up)
FI 30 min ED50 (NIH/Swiss mice; food intake, 30 min): 11 to 25 nmol/kg | FI 60 min ED50 (NIH/Swiss mice; food intake, 60 min): 25 to 33 nmol/kg | IC50 (CGRP receptors; read-out: IC50 CGRP RBA, Table 3): 12 nM

H-RVGCGNLSTCQVQNLSHRLWQLMGPAGRQDSAPVDPSSPHSY-NH2 (disulfide 4-10 (inferred)) [compound 22]
IC50 (amylin receptors): 2.4 nM | IC50 (CGRP receptors; Table 6): 35 nM | IC50 (calcitonin receptor [3]): 7.3 nM | IC50 (adrenomedullin receptor): 19 nM
